Assay results as given in patent US20240115744A1, “FIBRIN-BINDING COMPOUNDS FOR IMAGING AND TREATMENT” (Collagen Medical, LLC, priority 2019, published 2024).
Entries after “also recorded” stand apart in the source; their conditions may differ. *1 amine or outer side, *2 acyl side, *3 side chain or, on linkers, in order; H or OH if unused. Where a SMILES comes first, the peptide text is derived from it. Bridges are numbered along the chain shown (N, C = ends). [ ]: non-standard residue; d: D form. The star is where a group is joined. NODAGA = O=C(O)CN1CCN(CC(=O)O)CCN(C(CCC(=O)*)C(=O)O)CC1; Tyr(3-Cl) = N[C@@H](Cc1ccc(O)c(Cl)c1)C(=O)O; X1 = O=C([C@@H]1CC(O)CN1[*:1])[*:2]

Columns and labels:
[1] = tested on: fibrin in human carotid endarterectomy specimens; assay: Ex vivo functional probe assay of human carotid endarterectomy specimens; details: compared to non-binding probe ^68Ga-22; 12 patients; P<0.05
Protocol: Twelve discarded surgical specimens from asymptomatic patients who underwent elective carotid endarterectomy at Massachusetts General Hospital were obtained and used in ex vivo studies described herein. Samples were processed for histology, autoradiography, and probe binding assay as described above (Examples 6 and 13).
Discarded surgical specimens were embedded in optimal cutting temperature compound, snap-frozen, and stored at −80° C. before further analysis. Alternating consecutive cryosections were processed for histology and autoradiography; triplicate tissue samples with 50 μm gap in between were used for these experiments. The remaining tissue samples were processed for functional probe assay.
For functional probe assay, samples were thawed at room temperature, weighed (8-15 mg per sample), cut into duplicates, and placed into tubes containing 111-148 kBq (3-4 μCi)^68Ga-20 or the non-fibrin binding control probe ^68Ga-22 in 1 mL PBS. The mixture was shaken for 45 minutes at room temperature. After centrifugation, supernatant (sup-1) was removed, kept for further analysis, and tissue samples were washed with PBS (1 mL); this procedure was repeated twice for each sample. Wash solutions (wash-1 and wash-2) were kept for further analysis. Activities in tissue samples and solutions sol-1, wash-1, and wash-2 were measured on a gamma counter. Percent uptake was calculated as follows: […]

[2] = biological target: T1, vessel wall fibrin (Rattus norvegicus, UniProt P02680+P06399+P14480); assay: Autoradiography / PET imaging of injured ipsi- and contra-lateral carotid arteries; format: in vivo; details: rat injured vs contra-lateral carotid; ^68Ga-19 vs ^68Ga-20
T1 construct: resulting in mural thrombus formation at the site of the crush; from tissue; host or cells: injured common carotid artery of Wistar rats (in vivo and ex vivo autoradiography)
T1 sequence (P06399 37-782 limits assumed): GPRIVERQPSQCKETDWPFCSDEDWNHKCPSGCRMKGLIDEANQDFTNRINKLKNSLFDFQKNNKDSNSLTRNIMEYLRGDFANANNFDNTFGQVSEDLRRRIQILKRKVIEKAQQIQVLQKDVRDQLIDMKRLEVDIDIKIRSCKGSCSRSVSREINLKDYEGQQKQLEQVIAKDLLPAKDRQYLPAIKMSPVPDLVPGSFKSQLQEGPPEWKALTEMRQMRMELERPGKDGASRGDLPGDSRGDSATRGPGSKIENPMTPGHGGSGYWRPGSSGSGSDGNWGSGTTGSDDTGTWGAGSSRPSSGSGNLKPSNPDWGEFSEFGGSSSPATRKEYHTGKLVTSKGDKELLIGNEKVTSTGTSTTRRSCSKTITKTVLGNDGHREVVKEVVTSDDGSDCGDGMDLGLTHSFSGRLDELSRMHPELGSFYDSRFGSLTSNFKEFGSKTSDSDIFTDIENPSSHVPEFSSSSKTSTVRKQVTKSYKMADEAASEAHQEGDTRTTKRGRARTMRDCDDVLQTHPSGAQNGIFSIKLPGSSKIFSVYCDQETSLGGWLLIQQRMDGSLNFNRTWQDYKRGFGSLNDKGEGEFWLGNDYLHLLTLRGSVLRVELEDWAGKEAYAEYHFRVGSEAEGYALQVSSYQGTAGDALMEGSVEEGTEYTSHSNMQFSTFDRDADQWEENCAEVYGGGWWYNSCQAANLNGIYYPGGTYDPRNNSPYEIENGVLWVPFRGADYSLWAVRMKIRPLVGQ
T1 sequence (P14480 33-479 limits assumed): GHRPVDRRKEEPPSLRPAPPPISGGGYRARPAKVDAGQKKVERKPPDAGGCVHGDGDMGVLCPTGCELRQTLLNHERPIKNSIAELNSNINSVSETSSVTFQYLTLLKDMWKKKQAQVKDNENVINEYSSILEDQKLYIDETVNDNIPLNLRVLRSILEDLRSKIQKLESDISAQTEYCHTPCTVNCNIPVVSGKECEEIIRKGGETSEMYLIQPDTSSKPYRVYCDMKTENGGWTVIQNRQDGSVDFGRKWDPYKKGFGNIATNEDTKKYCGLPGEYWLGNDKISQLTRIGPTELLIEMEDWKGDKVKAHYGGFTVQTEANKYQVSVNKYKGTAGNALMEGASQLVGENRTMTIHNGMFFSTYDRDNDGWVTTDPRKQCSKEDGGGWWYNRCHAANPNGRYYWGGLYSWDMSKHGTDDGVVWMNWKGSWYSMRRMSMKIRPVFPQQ
T1 sequence (P02680 27-445 limits assumed): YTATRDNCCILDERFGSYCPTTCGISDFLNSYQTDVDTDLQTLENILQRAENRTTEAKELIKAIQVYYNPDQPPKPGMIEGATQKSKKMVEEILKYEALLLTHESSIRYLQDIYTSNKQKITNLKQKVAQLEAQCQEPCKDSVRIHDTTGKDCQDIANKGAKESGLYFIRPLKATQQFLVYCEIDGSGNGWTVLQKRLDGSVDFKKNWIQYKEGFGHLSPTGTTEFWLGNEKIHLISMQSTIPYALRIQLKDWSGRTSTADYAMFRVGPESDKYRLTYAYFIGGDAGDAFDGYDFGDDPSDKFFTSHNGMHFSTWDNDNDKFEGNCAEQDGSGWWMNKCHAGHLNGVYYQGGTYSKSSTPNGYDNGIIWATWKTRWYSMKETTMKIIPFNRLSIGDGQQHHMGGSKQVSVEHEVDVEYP
Protocol: (§1) Rat carotid endothelial injury model in vivo studies were conducted, wherein the common carotid artery is isolated and crushed briefly with a hemostat, resulting in mural thrombus formation at the site of the crush. The vessel wall fibrin is then imaged with our PET compounds. All six compounds were evaluated in this model.
(§2) Adult male Wistar rats were anesthetized by isoflurane (1-2% in medical air). Body temperature was maintained at 37° C. using a thermo-regulated heating pad. The right femoral vein and artery were cannulated for compound injection and blood sampling, respectively. Endothelial injury was induced by crush injury to the right common carotid artery (1-2 cm proximal to the carotid bifurcation) by clamping the vessel with a hemostat for 5 minutes. Immediately following the surgical procedures, rats were placed in a micro-PET/CT scanner. Compound (200-600 μL) was injected, PET-CT images were acquired, and blood samples were drawn from the femoral artery prior to compound injection and at 2, 5, 10, 15, 30, 60, 90, 120 min post injection. Tissues were harvested at the end for ex vivo analyses.
The injured ipsi- and the contra-lateral carotid arteries were placed on a multipurpose film and imaged using a Perkin-Elmer Cyclone Plus Storage Phosphor system. […]

[3] = Blood analysis in rat model of carotid artery crush injury (blood clearance); format: in vivo; details: relative to the other compounds compared
Protocol: as §1, §2
Blood samples were drawn from prior to probe injection and at 2, 5, 10, 15, 30, 60, 90, 120 min post injection. Each blood sample was weighed and counted using a gamma-counter. The activity in each sample was calculated as percent injected dose (% ID) per gram of tissue.

[4] = tested on: Fibrin clots; assay: PET in rabbit model of high risk plaque (plaque-rupture model); format: in vivo
Description: Mean SUV values, TBRvc and TBRm were compared across all rabbits after in vivo PET.

CC[C@H](C)[C@H](NC(=O)[C@H](Cc1cnc[nH]1)NC(=O)[C@@H]1CSSC[C@H](NC(=O)[C@@H](CCC(=O)O)NC(=O)[C@H](Cc2ccc(O)cc2)NC(=O)CCC(C(=O)O)N2CCN(CC(=O)O)CCN(CC(=O)O)CC2)C(=O)N2CC(O)C[C@H]2C(=O)N[C@@H](Cc2ccc(O)c(Cl)c2)C(=O)NCC(=O)N[C@@H](CC(C)C)C(=O)N1)C(=O)N[C@H](CCC(N)=O)C(N)=O (stereo partly shown) [Compound ^68Ga-20, metal not drawn] ({NODAGA}-Y[dE]C[X1][Tyr(3-Cl)]GLCHI[dQ]-NH2; disulfide 3-8)
uptake, functional probe assay [1]: variable but significantly increased; also recorded: significantly higher uptake
ipsi: contra ratios [2]: better ipsi: contra ratios
blood clearance ([3]; rat carotid artery crush injury, 2-120 min post injection): faster blood clearance
metabolic stability ([3]; rat): better metabolic stability
plaque rupture-to-control SUV ratios ([4]; across post injection imaging time points): higher plaque rupture-to-control SUV ratios were seen with longer post injection imaging time points
PET-MR uptake along the aorta ([4]; plaque rupture group vs control): Fibrin clots were seen as uptake spots along the aorta on the plaque rupture group
validation in rabbit model of high risk plaque ([4]; plaque-rupture model, in vivo PET): successfully validated
